How the values were obtained:
[1] = Effect of quinidine on metabolic stability in extensive metabolizer human liver microsomes; format: in vitro ADME; details: EM HLM
Procedure: Materials: Individual donor with extensive metabolizer human liver microsomes (EM HLM, 20 mg/mL) with CYP2D6 activity of 957±19 pmol/mg protein/min, genotyped for CYP2D6 allelic variant-CYP2D6*1/*2x2, were obtained from Xenotech, LLC (Lenexa, Kans.). β-nicotinamide adenine dinucleotide phosphate, reduced form (NADPH), magnesium chloride (MgCl2), dimethyl sulfoxide (DMSO), acetonitrile (ACN), quinidine, and dextromethorphan (DM) were purchased from Sigma-Aldrich. Dimemorfan and d6-dimemorfan (Compound 100) were synthesized by Adesis, Inc.
Determination of Metabolic Stability: 1.0 mg/mL stock solutions of test compounds dextromethorphan, dimemorfan, and d6-dimemorfan (Compound 100) were prepared in DMSO. The 1.0 mg/mL stock solutions were diluted to 10,000 ng/mL in acetonitrile (ACN). A 10 mM stock solution of quinidine was prepared in acetonitrile, which was then diluted further in acetonitrile to produce 20 μM, 10 μM, 5 μM, 2.5 μM, and 1.25 μM solutions of quinidine. The human liver microsomes were diluted to 1.25 mg/mL in 0.1 M potassium phosphate buffer, pH 7.4, containing 3 mM MgC12. The diluted microsomes were added to wells of a 96-well deep-well polypropylene plate in triplicate. A 5 μL aliquot of each 10,000 ng/mL test compound was added to the microsomes, and the mixture was pre-warmed at 37° C. for 7 minutes, then a 5 μL aliquot of each quinidine solution was added (except in control wells where no quinidine was added). Reactions were initiated by addition of pre-warmed NADPH solution to the mixture. The final reaction volume was 0.5 mL and contained 1.0 mg/mL human liver microsomes, 100 ng/mL of test compound, 0.2, 0.1, 0.05, 0.025, 0.0125, or 0 μM of quinidine, and 2 mM NADPH in 0.1 M potassium phosphate buffer, pH 7.4, and 3 mM MgCl2. The reaction mixtures were incubated at 37° C., and 50 μL aliquots were removed at 0, 15, 30, and 60 minutes and added to shallow-well 96-well plates which contained 50 μL of ice-cold ACN with internal standard to stop the reactions. The plates were stored at 4° C. for 20 minutes after which 100 μL of water was added to the wells of the plate before centrifugation to pellet precipitated proteins. Supernatants were transferred to another 96-well plate and analyzed for amounts of parent remaining by LC-MS/MS using an Applied Bio-systems mass spectrometer. Amount of parent remaining was quantified via standard curve.
The in vitro t1/2's for test compounds were calculated from the slopes of the linear regression of % parent remaining (In) vs. incubation time relationship. • in vitro t1/2=0.693/k • k=-[slope of linear regression of % parent remaining(In) vs incubation time]
The apparent intrinsic clearance was calculated using the following equation:
CLint (mL/min/kg)=(0.693/in vitro t1/2) (Incubation Volume/mg of microsomes)
(45 mg microsomes/gram of liver) (20 gm of liver/kg b.w.)
(§1) Data analysis was performed using Microsoft Excel Software.

[2] = Metabolic stability of test compounds using human liver microsomes; format: in vitro ADME; details: for half-life at 1 µM: human, pH 7.4, 1.0 mg/mL HLM, 1 μM test compound, 2 mM NADPH, 37° C., 0-30 minutes, read-out: Ave. t1/2 (n = 2), calculated half-life in human liver microsomes; for Change over non-deuterated compound (t1/2): vs Dimemorfan
Procedure: Example 4. Determination of Metabolic Stability of Test Compounds using Human Liver Microsomes. Human liver microsomes (20 mg/mL) were obtained from Xenotech, LLC (Lenexa, Kans.). β-nicotinamide adenine dinucleotide phosphate, reduced form (NADPH), magnesium chloride (MgCl2), and dimethyl sulfoxide (DMSO) were purchased from Sigma-Aldrich.
7.5 mM stock solutions of test compounds were prepared in DMSO. The 7.5 mM stock solutions were diluted to 50 μM in acetonitrile (ACN). The 20 mg/mL human liver microsomes were diluted to 1.25 mg/mL (1 mg/mL final) in 0.1 M potassium phosphate buffer, pH 7.4, containing 3 mM MgCl2. The diluted microsomes (375 μL) were added to wells of a 96-well polypropylene plate in triplicate. 10 μL of the 50 μM test compound was added to the microsomes and the mixture was pre-warmed for 10 minutes. Reactions were initiated by addition of 125 μL of pre-warmed NADPH solution. The final reaction volume was 0.5 mL and contained 1.0 mg/mL human liver microsomes, 1 μM test compound, and 2 mM NADPH in 0.1 M potassium phosphate buffer, pH 7.4, and 3 mM MgCl2. The reaction mixtures were incubated at 37° C., and 50 μL aliquots were removed at 0, 5, 10, 20, and 30 minutes and added to shallow 96-well plates which contained 50 μL of ice-cold ACN with internal standard to stop the reactions. The plates were stored at 4° C. for 20 minutes after which 100 μL of water was added to the wells of the plate before centrifugation to pellet precipitated proteins. Supernatants were transferred to another 96-well plate and analyzed for amounts of parent remaining by LC-MS/MS using an Applied Bio-systems API 4000 mass spectrometer.
7-ethoxy coumarin was used as a positive control.
The in vitro t1/2s for test compounds were calculated from the slopes of the linear regression of % parent remaining (In) vs incubation time relationship:
in vitro t 1/2=0.693/k, where k=-[slope of linear regression of % parent remaining(In) vs incubation time]
as §1

Structure (SMILES): [2H]C([2H])([2H])c1ccc2c(c1)[C@]13CCCC[C@@H]1[C@H](C2)N(C([2H])([2H])[2H])CC3 [Compound 100, (+)-3-(Methyl-d3)-17-(methyl-d3)-(9α, 13α, 14α)-morphinan]
- % Δ (D6-Dimemorfan/Dimemorfan), deuterium effect on half-life ([1]; Quinidine 0 μM): 35%
- Ratio (D6-Dimemorfan/Dimemorfan) of Clint, app ([1]; Quinidine 0 μM): 0.74
- % Δ (D6-Dimemorfan/Dimemorfan), deuterium effect on half-life ([1]; Quinidine 0.0125 μM): 59%
- Ratio (D6-Dimemorfan/Dimemorfan) of Clint, app ([1]; Quinidine 0.0125 μM): 0.61
- % Δ (D6-Dimemorfan/Dimemorfan), deuterium effect on half-life ([1]; Quinidine 0.025 μM): 3%
- Ratio (D6-Dimemorfan/Dimemorfan) of Clint, app ([1]; Quinidine 0.025 μM): 0.96
- % Δ (D6-Dimemorfan/Dimemorfan), deuterium effect on half-life ([1]; Quinidine 0.05 μM): 11%
- Ratio (D6-Dimemorfan/Dimemorfan) of Clint, app ([1]; Quinidine 0.05 μM): 0.90
- % Δ (D6-Dimemorfan/Dimemorfan), deuterium effect on half-life ([1]; Quinidine 0.1 μM): 22%
- Ratio (D6-Dimemorfan/Dimemorfan) of Clint, app ([1]; Quinidine 0.1 μM): 0.82
- % Δ (D6-Dimemorfan/Dimemorfan), deuterium effect on half-life ([1]; Quinidine 0.2 μM): −12%
- Ratio (D6-Dimemorfan/Dimemorfan) of Clint, app ([1]; Quinidine 0.2 μM): 1.11
- half-life at 1 µM [2]: 31.6 min
- Change over non-deuterated compound (t1/2) [2]: 37%

Structure (SMILES): [2H]C([2H])([2H])c1ccc2c(c1)[C@]13CCCC[C@@H]1[C@H](C2)N(C)CC3 [Compound 102, (+)-3-(Methyl-d3)-17-methyl-(9α, 13α, 14α)-morphinan]
- half-life at 1 µM [2]: 28 min
- Change over non-deuterated compound (t1/2) [2]: 21%

Structure (SMILES): Cc1ccc2c(c1)[C@]13CCCC[C@@H]1[C@H](C2)N(C)CC3 [Dimemorfan, (+)-(9α, 13α, 14α)-3,17-dimethylmorphinan, reference compound]
- half-life at 1 µM [2]: 23.1 min
